For experiment [1], the target named is GST-tagged K-Ras mutant / His-tagged hSOS1 (Homo sapiens, UniProt P01116). Briefly: HTRF assay, K-Ras mutant / SOS1 interaction. The conditions noted are these: compound nos. 102-196, general methodology of example 5; read-out: IC50 against mutant Kras. In kind it is binding. An excerpt: (§1) This assay can be also used to assess a selective inhibition of a mutant Ras protein relative to a wildtype, or relative to a different mutant Ras protein. For example, the equilibrium interaction of wildtype Kras or K-Ras mutant (e.g., wildtype or a mutant thereof including those mentioned in Example 6) with SOS1 (e.g., hSOS1) can be assessed as a proxy or an indication for a subject compound's ability to bind and inhibit Ras protein. HTRF assay detects from (i) a fluorescence resonance energy transfer (FRET) donor (e.g., antiGST-Europium) that is bound to GST-tagged K-Ras mutant to (ii) a FRET acceptor (e.g., anti-6His-XL665) bound to a His-tagged hSOS1.
GST-tagged K-Ras mutant / His-tagged hSOS1, sequence (P01116 whole entry G12D, form open): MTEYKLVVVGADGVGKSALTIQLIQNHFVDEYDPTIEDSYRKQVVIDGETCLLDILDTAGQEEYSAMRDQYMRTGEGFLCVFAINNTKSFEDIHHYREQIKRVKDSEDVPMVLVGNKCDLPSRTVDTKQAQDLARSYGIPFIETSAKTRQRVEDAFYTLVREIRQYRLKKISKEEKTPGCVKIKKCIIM
(§2) The assay buffer can contain ˜5 mM HEPES pH 7.4, ˜150 mM NaCl, ˜ 1 mM DTT, 0.05% BSA and 0.0025% (v/v) Igepal. A Ras working solution is prepared in an assay buffer containing typically a suitable amount of the protein construct (e.g., GST-tagged K-Ras mutant) and the FRET donor (e.g., antiGST-Eu(K) from Cisbio, France). A SOS1 working solution is prepared in an assay buffer containing suitable amount of the protein construct (e.g., His-hSOS1) and the FRET acceptor (e.g., anti-6His-XL665 from Cisbio, France). A suitable amount of the protein construct will depend on the range of activity or range of IC50 values being detected or under investigation. For detecting IC50 within a range of 500 nM, the protein constructs of the same range of molarity can be utilized.
(§3) A fixed volume of DMSO with or without test compound is transferred into a 384-well plate. Ras working solution is added to all wells of the test plate. SOS1 working solution is added to all wells except for those that are subsequently filled the inhibitor control solution. Upon incubation for about 10 minutes or longer, the fluorescence is measured with a M1000Pro plate reader (Tecan) using HTRF detection (excitation 337 nm, emission 1: 620 nm, emission 2: 665 nm). Compounds are tested in duplicates at different concentrations (for example, 10 μM, 2.5 μM, 0.63 μM, 0.16 μM, 0.04 µM, 0.01 μM test compound). The ratiometric data (i.e., emission 2 divided by emission 1) is used to calculate IC50 values against Ras using GraphPad Prism (GraphPad software). Following this general procedure, samples were tested with or without a subject compound disclosed herein including compounds exemplified in Table 1 to assess their abilities to inhibit K-Ras signaling or their respective IC50 values against a given Ras protein (e.g., a given mutant K-Ras) of interest.
For orientation: In TR-FRET formats the signal depends on donor and acceptor labels being close together.

Another experiment addresses T1, wildtype Kras / hSOS1 (Homo sapiens, UniProt P01116).
T1 construct: made in house; host or cells: E. coli BL21 (DE3)
Briefly: HTRF assay, wildtype Kras / SOS1 interaction. Format: binding. The conditions noted are these: compound nos. 102-196, general methodology of example 5; read-out: IC50 against wildtype Kras.
Source text: as §1, §2, §3

T1 sequence (P01116 1-188 isoform P01116-2): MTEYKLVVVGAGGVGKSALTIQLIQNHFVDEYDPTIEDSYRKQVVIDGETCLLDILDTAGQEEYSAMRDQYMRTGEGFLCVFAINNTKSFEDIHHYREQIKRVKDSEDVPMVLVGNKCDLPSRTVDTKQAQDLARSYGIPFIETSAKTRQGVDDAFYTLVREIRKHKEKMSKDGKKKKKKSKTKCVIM

Take `Nc1nc2c(-c3c(Cl)cc4c(N5CCCCC(F)(F)C5)nc(OCC56CCCN5CCC6)nc4c3F)ccc(F)c2s1` [Compound 117, 4-(6-chloro-4-(3,3-difluoro-azepan-1-yl)-8-fluoro-2-((tetrahydro-1H-pyrrolizin-7a(5H)-yl)methoxy)quin-azolin-7-yl)-7-fluorobenzo-[d]thiazol-2-amine]: the IC50 (in experiment [1]; at wildtype Kras / hSOS1) was under 0.5 µM in each case.
Consider `CN1CCC[C@H]1COc1nc(N2CCNCC(C)(C)C2)c2cc(Cl)c(-c3cccc4sc(N)nc34)c(F)c2n1` [Compound 118, 4-(6-chloro-4-(6,6-dimethyl-1,4-diazepan-1-yl)-8-fluoro-2-(((S)-1-methylpyrrolidin-2-yl)methoxy)quinazolin-7-yl)benzo[d]thiazol-2-amine], for which the half-maximal inhibitory concentration (IC50) (in experiment [1]; at wildtype Kras / hSOS1) was over 0.5 µM in each case.
Consider `CN1CCC[C@H]1COc1nc(N2CCCC(F)(F)CC2)c2cc(Cl)c(-c3cccc4sc(N)nc34)c(F)c2n1` [Compound 119, 4-(6-chloro-4-(4,4-difluoro-azepan-1-yl)-8-fluoro-2-(((S)-1-methylpyrrolidin-2-yl)methoxy)quinazolin-7-yl)-benzo[d]thiazol-2-amine], for which the IC50 (as a rule, the concentration that inhibits the measured activity by half) was over 0.5 µM in experiment [1] and under 0.5 µM at wildtype Kras / hSOS1.
As to `Nc1nc2c(-c3c(Cl)cc4c(N5CCNCC(F)(F)C5)nc(OCC56CCCN5C[C@H](F)C6)nc4c3F)cccc2s1` (stereo partly drawn) [Compound 120, 4-(6-chloro-4-(6,6-difluoro-1,4-diazepan-1-yl)-8-fluoro-2-(((2R)-2-fluorotetrahydro-1H-pyrrolizin-7a(5H)-yl)-methoxy)quinazolin-7-yl)-benzo[d]thiazol-2-amine], the 50% inhibitory concentration (IC50) (in experiment [1]; at wildtype Kras / hSOS1) was under 0.5 µM in each case.
Consider `CO[C@@H]1C[C@@H](COc2nc(N3CCNCC(F)(F)C3)c3cc(Cl)c(-c4cccc5sc(N)nc45)c(F)c3n2)N(C)C1` [Compound 121, 4-(6-chloro-4-(6,6-difluoro-1,4-diazepan-1-yl)-8-fluoro-2-(((2S,4R)-4-methoxy-1-methylpyrrolidin-2-yl)-methoxy)quinazolin-7-yl)-benzo[d]thiazol-2-amine], for which the IC50 (in experiment [1]; at wildtype Kras / hSOS1) was under 0.5 µM in each case.
Turning to `CN1CCC[C@H]1COc1nc(N2CCNCC(F)(F)C2)c2cc(Cl)c(-c3cccc4scnc34)c(F)c2n1` [Compound 122, 4-(6-chloro-4-(6,6-difluoro-1,4-diazepan-1-yl)-8-fluoro-2-(((S)-1-methylpyrrolidin-2-yl)methoxy)quinazolin-7-yl)benzo[d]thiazole], the half-maximal inhibitory concentration (IC50) (in experiment [1]; at wildtype Kras / hSOS1) was over 0.5 µM in each case.
Take `CN1CCN(c2nc(OC[C@@H]3CCCN3C)nc3c(F)c(-c4cccc5sc(N)nc45)c(Cl)cc23)CC(F)(F)C1` [Compound 123, 4-(6-chloro-4-(6,6-difluoro-4-methyl-1,4-diazepan-1-yl)-8-fluoro-2-(((S)-1-methyl-pyrrolidin-2-yl)methoxy)-quinazolin-7-yl)benzo[d]-thiazol-2-amine]: the IC50 (in experiment [1]; on wildtype Kras / hSOS1) was over 0.5 µM each time.
With `CN1CCC[C@H]1COc1nc(N2CC3CCNC3C2)c2cc(Cl)c(-c3cccc4sc(N)nc34)c(F)c2n1` (stereo partly drawn) [Compound 124, 4-(6-chloro-8-fluoro-4-(hexahydropyrrolo[3,4-b]-pyrrol-5(1H)-yl)-2-(((S)-1-methylpyrrolidin-2-yl)meth-oxy)quinazolin-7-yl)benzo-[d]thiazol-2-amine], the IC50 (in experiment [1]; at wildtype Kras / hSOS1) was over 0.5 µM each time.
As to `CN1CCC[C@H]1COc1nc(N2CCNCC(F)(F)C2)c2cc(C#N)c(-c3cccc4sc(N)nc34)c(F)c2n1` [Compound 125, 7-(2-aminobenzo[d]thiazol-4-yl)-4-(6,6-difluoro-1,4-diazepan-1-yl)-8-fluoro-2-(((S)-1-methylpyrrolidin-2-yl)methoxy)quinazoline-6-carbonitrile], the half-maximal inhibitory concentration (IC50) (in experiment [1]; on wildtype Kras / hSOS1) was over 0.5 µM each time.
Consider `CO[C@H]1C[C@@H](COc2nc(N3CCNCC(F)(F)C3)c3cc(Cl)c(-c4cccc5sc(N)nc45)c(F)c3n2)N(C)C1` [Compound 126, 4-(6-chloro-4-(6,6-difluoro-1,4-diazepan-1-yl)-8-fluoro-2-(((2S,4S)-4-methoxy-1-methylpyrrolidin-2-yl)-methoxy)quinazolin-7-yl)-benzo[d]thiazol-2-amine], for which the IC50 in experiment [1] was over 0.5 µM; on wildtype Kras / hSOS1, under 0.5 µM.
On to `CN1CCC[C@H]1COc1nc(N2CCCNCC(F)(F)C2)c2cc(Cl)c(-c3cccc4sc(N)nc34)c(F)c2n1` [Compound 127, 4-(6-chloro-4-(3,3-difluoro-1,5-diazocan-1-yl)-8-fluoro-2-(((S)-1-methylpyrrolidin-2-yl)methoxy)quinazolin-7-yl)benzo[d]thiazol-2-amine], for which the IC50 (in experiment [1]; at wildtype Kras / hSOS1) was under 0.5 µM each time.
For the molecule `CN1CCC[C@H]1COc1nc(N2CCNCC3(CC3)C2)c2cc(Cl)c(-c3cccc4sc(N)nc34)c(F)c2n1` [Compound 128, 4-(6-chloro-8-fluoro-2-(((S)-1-methylpyrrolidin-2-yl)-methoxy)-4-(5,8-diazaspiro-[2.6]nonan-5-yl)quinazolin-7-yl)benzo[d]thiazol-2-amine], the IC50 (in experiment [1]; at wildtype Kras / hSOS1) was over 0.5 µM in each case.
As for `Nc1nc2c(-c3c(Cl)cc4c(N5CCNCC(F)(F)C5)nc(OCCCN5CCOCC5)nc4c3F)cccc2s1` [Compound 129, 4-(6-chloro-4-(6,6-difluoro-1,4-diazepan-1-yl)-8-fluoro-2-(3-morpholinopropoxy)-quinazolin-7-yl)benzo[d]-thiazol-2-amine], the IC50 is over 0.5 µM in experiment [1] and under 0.5 µM on wildtype Kras / hSOS1.
As to `CN1C[C@@H](F)C[C@H]1COc1nc(N2CCNCC(F)(F)C2)c2cc(Cl)c(-c3cccc4sc(N)nc34)c(F)c2n1` [Compound 130, 4-(6-chloro-4-(6,6-difluoro-1,4-diazepan-1-yl)-8-fluoro-2-(((2S,4S)-4-fluoro-1-methylpyrrolidin-2-yl)meth-oxy)quinazolin-7-yl)benzo-[d]thiazol-2-amine], the IC50 was over 0.5 µM in experiment [1] and under 0.5 µM at wildtype Kras / hSOS1.
For `Cn1cnnc1COc1nc(N2CCNCC(F)(F)C2)c2cc(Cl)c(-c3cccc4sc(N)nc34)c(F)c2n1` [Compound 131, 4-(6-chloro-4-(6,6-difluoro-1,4-diazepan-1-yl)-8-fluoro-2-((4-methyl-4H-1,2,4-triazol-3-yl)methoxy)quin-azolin-7-yl)benzo[d]thiazol-2-amine], in that order: over 0.5 µM and over 0.5 µM.
The like results for `CN1CCC[C@H]1COc1nc(N2CCCC3(CNC3)C2)c2cc(Cl)c(-c3cccc4sc(N)nc34)c(F)c2n1` [Compound 132, 4-(6-chloro-8-fluoro-2-(((S)-1-methylpyrrolidin-2-yl)-methoxy)-4-(2,6-diazaspiro-[3.5]nonan-6-yl)quinazolin-7-yl)benzo[d]thiazol-2-amine] were, in that order, over 0.5 µM and over 0.5 µM.
Take `Nc1nc2c(-c3c(Cl)cc4c(N5CCNCC(F)(F)C5)nc(OC[C@@]56CCCN5C[C@H](F)C6)nc4c3F)ccc(F)c2s1` [Compound 133, 4-(6-chloro-4-(6,6-difluoro-1,4-diazepan-1-yl)-8-fluoro-2-(((2R,7aS)-2-fluorotetrahydro-1H-pyrrolizin-7a(5H)-yl)methoxy)quinazolin-7-yl)-7-fluorobenzo[d]thiazol-2-amine]: the concentration for half-maximal inhibition (IC50) (in experiment [1]; at wildtype Kras / hSOS1) was under 0.5 µM each time.
Take `CN1CCC(COc2nc(N3CCNCC(F)(F)C3)c3cc(Cl)c(-c4cccc5sc(N)nc45)c(F)c3n2)CC1` [Compound 134, 4-(6-chloro-4-(6,6-difluoro-1,4-diazepan-1-yl)-8-fluoro-2-((1-methylpiperidin-4-yl)-methoxy)quinazolin-7-yl)-benzo[d]thiazol-2-amine]: the half-maximal inhibitory concentration (IC50) in experiment [1] is over 0.5 µM; on wildtype Kras / hSOS1, under 0.5 µM.
`CN(C)C1CN(c2nc(N3CCNCC(F)(F)C3)c3cc(Cl)c(-c4cccc5sc(N)nc45)c(F)c3n2)C1` [Compound 135, 4-(6-chloro-4-(6,6-difluoro-1,4-diazepan-1-yl)-2-(3-(dimethylamino)azetidin-1-yl)-8-fluoroquinazolin-7-yl)-benzo[d]thiazol-2-amine]: the concentration for half-maximal inhibition (IC50) (in experiment [1]; on wildtype Kras / hSOS1) was over 0.5 µM each time.

The values are drawn from US20240254129A1, “HETEROCYCLIC COMPOUNDS AND USES THEREOF” (Kumquat Biosciences Inc., priority 2021, published 2024).
